# According to patent publication US20230301300A1, “HERBICIDAL COMPOSITIONS” (SYNGENTA CROP PROTECTION AG, priority 2020, published 2023):
# Assays:
# Assay type in all cases: in vivo
# Setaria faberi (SETFA) [1] = assay: B1 Post-Emergence Efficacy - Test 1; conditions: 1000 g/ha, after 13 days, five point scale
# Method in brief: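 Post-emergence spray, 1000 g/ha, acetone/water 50:50 + 0.5% Tween 20, on plants 8 d after sowing in soil pots. Glasshouse 24/16° C., 14 h light, 65% humidity, watered twice daily. % damage at 13 d, five-point score.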
# [2] = system: Amaranthus retroflexus (AMARE); assay: B2 Post-Emergence Efficacy - Test 2; conditions: 15 days after application, 0-100 scale
# Method in brief: (§1)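 Glasshouse post-emergence test: plants sown in standard soil, grown 12 days (24/18 °C or 20/16 °C day/night; 16 h light; 65% humidity), sprayed once with an aqueous IF50-based formulation including 0.2% v/v Genapol X080. Visual injury, 0–100, recorded 15 days post-application.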
# Avena fatua (AVEFA) = assay: B2 Post-Emergence Efficacy - Test 2; conditions: 15 days after application, 0-100 scale
# Method in brief: as §1
# Beta vulgaris (BEAVA) = assay: B2 Post-Emergence Efficacy - Test 2; conditions: 15 days after application, 0-100 scale
# Method in brief: as §1
# Bidens pilosa (BIDPI) = assay: B2 Post-Emergence Efficacy - Test 2; conditions: 15 days after application, 0-100 scale
# Method in brief: as §1
# [3] = system: Brachiaria plantaginea (BRAPL); assay: B2 Post-Emergence Efficacy - Test 2; conditions: 15 days after application, 0=no damage, 100=total kill
# Method in brief: as §1
# [4] = system: Digitaria sanguinalis (DIGSA); assay: B2 Post-Emergence Efficacy - Test 2; conditions: 15 days after application, 0=no damage, 100=total kill
# Method in brief: as §1
# Eleisine indica (ELEIN) = assay: B2 Post-Emergence Efficacy - Test 2; conditions: 15 days after application, 0=no damage, 100=total kill
# Method in brief: as §1
# Galium aparine (GALAP) = assay: B2 Post-Emergence Efficacy - Test 2; conditions: 15 days after application, 0-100 scale
# Method in brief: as §1
# Hordeum vulgare (HORVW) = assay: B2 Post-Emergence Efficacy - Test 2; conditions: 15 days after application, 0-100 scale
# Method in brief: as §1
# [5] = system: Ipomoea hederacea (IPOHE); assay: B2 Post-Emergence Efficacy - Test 2; conditions: 15 days after application, 0-100 scale
# Method in brief: as §1
# Kochia scoparia (KSHSC) = assay: B2 Post-Emergence Efficacy - Test 2; conditions: 15 days after application, 0-100 scale
# Method in brief: as §1
# Setaria faberi (SETFA) [6] = assay: B2 Post-Emergence Efficacy - Test 2; conditions: 15 days after application, 0=no damage, 100=total kill
# Method in brief: as §1
# Sinapis arvensis (SINAR) = assay: B2 Post-Emergence Efficacy - Test 2; conditions: 15 days after application, 0-100 scale
# Method in brief: as §1
# [7] = system: Triticum aestivum (TRZAW); assay: B2 Post-Emergence Efficacy - Test 2; conditions: 15 days after application, 0-100 scale
# Method in brief: as §1
# Veronica persica (VERPE) = assay: B2 Post-Emergence Efficacy - Test 2; conditions: 15 days after application, 0-100 scale
# Method in brief: as §1
smiles,measurement,setting,value
"Cc1nn(C)c(=O)c(-c2c(F)ccc(Cl)c2CCc2ccc(F)cc2)c1OC(=O)C(C)C [Compound 1.125, [5-[3-chloro-6-fluoro-2-[2-(4-fluorophenyl)ethyl]phenyl]-1,3-dimethyl-6-oxo-pyridazin-4-yl] 2-methylpropanoate]","percentage damage caused to the plant, SETFA",Setaria faberi (SETFA) [1],5 (5=80-100%)
same,Herbicidal activity AMARE,[2]; 15 g/Ha,80
same,Herbicidal activity AMARE,[2]; 30 g/Ha,90
same,Herbicidal activity AMARE,[2]; 60 g/Ha,90
same,Herbicidal activity AMARE,[2]; 125 g/Ha,100
same,Herbicidal activity AMARE,[2]; 250 g/Ha,100
same,Herbicidal activity AMARE,[2]; 500 g/Ha,100
same,Herbicidal activity AVEFA,Avena fatua (AVEFA); 15 g/Ha,30
same,Herbicidal activity AVEFA,Avena fatua (AVEFA); 30 g/Ha,40
same,Herbicidal activity AVEFA,Avena fatua (AVEFA); 60 g/Ha,60
same,Herbicidal activity AVEFA,Avena fatua (AVEFA); 125 g/Ha,70
same,Herbicidal activity AVEFA,Avena fatua (AVEFA); 250 g/Ha,70
same,Herbicidal activity AVEFA,Avena fatua (AVEFA); 500 g/Ha,80
same,Herbicidal activity BEAVA,Beta vulgaris (BEAVA); 15 g/Ha,70
same,Herbicidal activity BEAVA,Beta vulgaris (BEAVA); 30 g/Ha,60
same,Herbicidal activity BEAVA,Beta vulgaris (BEAVA); 60 g/Ha,60
same,Herbicidal activity BEAVA,Beta vulgaris (BEAVA); 125 g/Ha,70
same,Herbicidal activity BEAVA,Beta vulgaris (BEAVA); 250 g/Ha,70
same,Herbicidal activity BEAVA,Beta vulgaris (BEAVA); 500 g/Ha,70
same,Herbicidal activity BIDPI,Bidens pilosa (BIDPI); 15 g/Ha,60
same,Herbicidal activity BIDPI,Bidens pilosa (BIDPI); 30 g/Ha,60
same,Herbicidal activity BIDPI,Bidens pilosa (BIDPI); 60 g/Ha,70
same,Herbicidal activity BIDPI,Bidens pilosa (BIDPI); 125 g/Ha,70
same,Herbicidal activity BIDPI,Bidens pilosa (BIDPI); 250 g/Ha,80
same,Herbicidal activity BIDPI,Bidens pilosa (BIDPI); 500 g/Ha,100
same,"Herbicidal activity on a 0-100 scale, BRAPL",[3]; 15 g/Ha,80
same,"Herbicidal activity on a 0-100 scale, BRAPL",[3]; 60 g/Ha,80
same,"Herbicidal activity on a 0-100 scale, BRAPL",[3]; 125 g/Ha,80
same,"Herbicidal activity on a 0-100 scale, BRAPL",[3]; 250 g/Ha,70
same,"Herbicidal activity on a 0-100 scale, BRAPL",[3]; 500 g/Ha,80
same,"Herbicidal activity on a 0-100 scale, DIGSA",[4]; 15 g/Ha,0
same,"Herbicidal activity on a 0-100 scale, DIGSA",[4]; 30 g/Ha,0
same,"Herbicidal activity on a 0-100 scale, DIGSA",[4]; 60 g/Ha,0
same,"Herbicidal activity on a 0-100 scale, DIGSA",[4]; 125 g/Ha,10
same,"Herbicidal activity on a 0-100 scale, DIGSA",[4]; 250 g/Ha,30
same,"Herbicidal activity on a 0-100 scale, DIGSA",[4]; 500 g/Ha,70
same,"Herbicidal activity on a 0-100 scale, ELEIN",Eleisine indica (ELEIN); 15 g/Ha,40
same,"Herbicidal activity on a 0-100 scale, ELEIN",Eleisine indica (ELEIN); 30 g/Ha,40
same,"Herbicidal activity on a 0-100 scale, ELEIN",Eleisine indica (ELEIN); 60 g/Ha,70
same,"Herbicidal activity on a 0-100 scale, ELEIN",Eleisine indica (ELEIN); 125 g/Ha,70
same,"Herbicidal activity on a 0-100 scale, ELEIN",Eleisine indica (ELEIN); 250 g/Ha,80
same,"Herbicidal activity on a 0-100 scale, ELEIN",Eleisine indica (ELEIN); 500 g/Ha,80
same,Herbicidal activity GALAP,Galium aparine (GALAP); 30 g/Ha,20
same,Herbicidal activity GALAP,Galium aparine (GALAP); 60 g/Ha,20
same,Herbicidal activity GALAP,Galium aparine (GALAP); 125 g/Ha,30
same,Herbicidal activity GALAP,Galium aparine (GALAP); 250 g/Ha,40
same,Herbicidal activity GALAP,Galium aparine (GALAP); 500 g/Ha,70
same,Herbicidal activity HORVW,Hordeum vulgare (HORVW); 15 g/Ha,0
same,Herbicidal activity HORVW,Hordeum vulgare (HORVW); 30 g/Ha,0
same,Herbicidal activity HORVW,Hordeum vulgare (HORVW); 60 g/Ha,10
same,Herbicidal activity HORVW,Hordeum vulgare (HORVW); 125 g/Ha,10
same,Herbicidal activity HORVW,Hordeum vulgare (HORVW); 250 g/Ha,10
same,Herbicidal activity HORVW,Hordeum vulgare (HORVW); 500 g/Ha,10
same,Herbicidal activity IPOHE,[5]; 15 g/Ha,90
same,Herbicidal activity IPOHE,[5]; 30 g/Ha,100
same,Herbicidal activity IPOHE,[5]; 60 g/Ha,100
same,Herbicidal activity IPOHE,[5]; 125 g/Ha,100
same,Herbicidal activity IPOHE,[5]; 250 g/Ha,100
same,Herbicidal activity IPOHE,[5]; 500 g/Ha,100
same,Herbicidal activity KCHSC,Kochia scoparia (KSHSC); 15 g/Ha,0
same,Herbicidal activity KCHSC,Kochia scoparia (KSHSC); 30 g/Ha,2
same,Herbicidal activity KCHSC,Kochia scoparia (KSHSC); 60 g/Ha,30
same,Herbicidal activity KCHSC,Kochia scoparia (KSHSC); 125 g/Ha,50
same,Herbicidal activity KCHSC,Kochia scoparia (KSHSC); 250 g/Ha,60
same,Herbicidal activity KCHSC,Kochia scoparia (KSHSC); 500 g/Ha,70
same,"Herbicidal activity on a 0-100 scale, SETFA",Setaria faberi (SETFA) [6]; 15 g/Ha,0
same,"Herbicidal activity on a 0-100 scale, SETFA",Setaria faberi (SETFA) [6]; 30 g/Ha,10
same,"Herbicidal activity on a 0-100 scale, SETFA",Setaria faberi (SETFA) [6]; 60 g/Ha,20
same,"Herbicidal activity on a 0-100 scale, SETFA",Setaria faberi (SETFA) [6]; 125 g/Ha,20
same,"Herbicidal activity on a 0-100 scale, SETFA",Setaria faberi (SETFA) [6]; 250 g/Ha,20
same,"Herbicidal activity on a 0-100 scale, SETFA",Setaria faberi (SETFA) [6]; 500 g/Ha,100
same,Herbicidal activity SINAR,Sinapis arvensis (SINAR); 15 g/Ha,60
same,Herbicidal activity SINAR,Sinapis arvensis (SINAR); 30 g/Ha,60
same,Herbicidal activity SINAR,Sinapis arvensis (SINAR); 60 g/Ha,80
same,Herbicidal activity SINAR,Sinapis arvensis (SINAR); 125 g/Ha,90
same,Herbicidal activity SINAR,Sinapis arvensis (SINAR); 250 g/Ha,90
same,Herbicidal activity SINAR,Sinapis arvensis (SINAR); 500 g/Ha,90
same,Herbicidal activity TRZAW,[7]; 15 g/Ha,0
same,Herbicidal activity TRZAW,[7]; 30 g/Ha,10
same,Herbicidal activity TRZAW,[7]; 60 g/Ha,10
same,Herbicidal activity TRZAW,[7]; 125 g/Ha,20
same,Herbicidal activity TRZAW,[7]; 250 g/Ha,30
same,Herbicidal activity TRZAW,[7]; 500 g/Ha,50
same,Herbicidal activity VERPE,Veronica persica (VERPE); 15 g/Ha,70
same,Herbicidal activity VERPE,Veronica persica (VERPE); 30 g/Ha,70
same,Herbicidal activity VERPE,Veronica persica (VERPE); 60 g/Ha,70
same,Herbicidal activity VERPE,Veronica persica (VERPE); 125 g/Ha,80
same,Herbicidal activity VERPE,Veronica persica (VERPE); 250 g/Ha,80
same,Herbicidal activity VERPE,Veronica persica (VERPE); 500 g/Ha,90
